In publication PMC5888987 (Carcinogenesis, 2018):

What was measured:
Type in all cases: biochemical
[1] = target: mTOR (Homo sapiens, UniProt P42345); experiment: FRET-based Z-LYTE kinase assay
[2] = target: DNMT1 (Homo sapiens, UniProt P26358); experiment: AlphaScreen methyltransferase assay with […] SAM
[3] = target: DNMT3B (Homo sapiens, UniProt Q9UBC3); experiment: AlphaScreen methyltransferase assay with […] SAM
[4] = target: DNMT3A (Homo sapiens, UniProt Q9Y6K1); experiment: AlphaScreen methyltransferase assay with […] SAM
Sequence of DNMT3A (Q9Y6K1 whole entry, looked up): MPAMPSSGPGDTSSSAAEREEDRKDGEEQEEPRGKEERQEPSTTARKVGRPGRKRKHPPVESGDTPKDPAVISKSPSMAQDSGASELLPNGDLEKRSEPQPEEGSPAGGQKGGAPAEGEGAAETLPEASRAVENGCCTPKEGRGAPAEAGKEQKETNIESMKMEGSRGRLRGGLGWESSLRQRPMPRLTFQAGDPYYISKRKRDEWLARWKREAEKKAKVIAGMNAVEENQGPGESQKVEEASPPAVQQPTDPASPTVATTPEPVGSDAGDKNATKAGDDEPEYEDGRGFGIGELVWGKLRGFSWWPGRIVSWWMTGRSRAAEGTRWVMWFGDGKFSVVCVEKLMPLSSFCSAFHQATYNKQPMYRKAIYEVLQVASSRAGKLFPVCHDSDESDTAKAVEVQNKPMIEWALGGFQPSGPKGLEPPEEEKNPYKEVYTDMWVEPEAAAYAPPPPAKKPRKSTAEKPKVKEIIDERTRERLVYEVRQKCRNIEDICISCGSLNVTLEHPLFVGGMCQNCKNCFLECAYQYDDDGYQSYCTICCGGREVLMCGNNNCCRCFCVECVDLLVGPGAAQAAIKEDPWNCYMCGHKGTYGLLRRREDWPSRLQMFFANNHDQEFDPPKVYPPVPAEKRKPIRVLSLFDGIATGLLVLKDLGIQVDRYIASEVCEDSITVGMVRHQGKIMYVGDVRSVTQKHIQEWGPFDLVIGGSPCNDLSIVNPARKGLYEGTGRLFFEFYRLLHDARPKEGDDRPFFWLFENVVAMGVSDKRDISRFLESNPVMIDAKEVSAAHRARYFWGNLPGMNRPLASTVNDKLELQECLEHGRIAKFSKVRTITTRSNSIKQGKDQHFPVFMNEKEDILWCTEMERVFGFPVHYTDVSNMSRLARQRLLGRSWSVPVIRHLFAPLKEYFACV

Sequence of DNMT1 (P26358 whole entry): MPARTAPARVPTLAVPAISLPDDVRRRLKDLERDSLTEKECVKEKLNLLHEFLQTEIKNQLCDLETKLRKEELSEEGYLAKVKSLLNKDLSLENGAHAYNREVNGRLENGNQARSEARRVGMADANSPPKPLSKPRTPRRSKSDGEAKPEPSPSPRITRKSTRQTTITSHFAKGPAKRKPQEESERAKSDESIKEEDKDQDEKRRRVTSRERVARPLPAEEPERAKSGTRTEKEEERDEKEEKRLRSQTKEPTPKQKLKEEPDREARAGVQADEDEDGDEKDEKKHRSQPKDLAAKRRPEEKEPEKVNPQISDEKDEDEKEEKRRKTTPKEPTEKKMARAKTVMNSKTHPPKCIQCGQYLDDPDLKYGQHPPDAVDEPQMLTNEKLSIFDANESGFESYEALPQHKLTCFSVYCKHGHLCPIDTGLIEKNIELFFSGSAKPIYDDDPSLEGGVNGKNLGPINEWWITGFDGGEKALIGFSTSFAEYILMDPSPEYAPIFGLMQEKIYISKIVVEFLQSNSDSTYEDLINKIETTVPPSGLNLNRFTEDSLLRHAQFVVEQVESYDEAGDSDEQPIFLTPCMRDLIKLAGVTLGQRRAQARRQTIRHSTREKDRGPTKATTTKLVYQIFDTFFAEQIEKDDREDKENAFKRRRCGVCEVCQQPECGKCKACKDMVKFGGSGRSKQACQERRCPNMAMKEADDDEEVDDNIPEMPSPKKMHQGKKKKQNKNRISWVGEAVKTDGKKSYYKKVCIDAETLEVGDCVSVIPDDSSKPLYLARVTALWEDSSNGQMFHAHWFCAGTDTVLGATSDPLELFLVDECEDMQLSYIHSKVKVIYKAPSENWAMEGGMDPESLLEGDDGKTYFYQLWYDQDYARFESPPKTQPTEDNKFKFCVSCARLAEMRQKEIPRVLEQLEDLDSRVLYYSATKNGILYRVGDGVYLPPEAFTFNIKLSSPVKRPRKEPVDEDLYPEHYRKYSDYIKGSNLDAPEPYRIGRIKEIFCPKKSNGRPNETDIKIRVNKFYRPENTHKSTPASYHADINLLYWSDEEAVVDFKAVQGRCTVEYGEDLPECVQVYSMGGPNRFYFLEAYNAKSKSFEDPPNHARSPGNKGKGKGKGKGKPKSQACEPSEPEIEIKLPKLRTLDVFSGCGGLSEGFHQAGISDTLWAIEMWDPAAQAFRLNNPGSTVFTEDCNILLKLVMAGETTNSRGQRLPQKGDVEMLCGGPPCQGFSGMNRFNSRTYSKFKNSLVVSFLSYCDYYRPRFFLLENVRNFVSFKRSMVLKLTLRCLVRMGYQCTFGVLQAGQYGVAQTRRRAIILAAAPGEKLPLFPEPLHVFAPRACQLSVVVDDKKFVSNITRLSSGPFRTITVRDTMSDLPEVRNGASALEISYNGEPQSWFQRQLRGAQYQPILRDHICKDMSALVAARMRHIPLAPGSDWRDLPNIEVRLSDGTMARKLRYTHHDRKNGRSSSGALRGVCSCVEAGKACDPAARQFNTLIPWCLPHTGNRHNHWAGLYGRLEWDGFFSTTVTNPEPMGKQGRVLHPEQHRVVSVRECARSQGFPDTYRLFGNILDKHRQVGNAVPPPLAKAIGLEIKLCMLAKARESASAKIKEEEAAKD

IC50 [1] [µM]	IC50 [2] [µM]	IC50 [3] [µM]	IC50 [4] [µM]	Structure (SMILES)
2.6	11.5	5.2	5.7	C/C=C(/C=O)[C@@H](CC=O)CC(=O)OCCc1ccc(O)c(O)c1 [DOA, decarboxymethyl oleuropein aglycone]
		2.8	5.8	Nc1ncnc2c1ncn2[C@@H]1O[C@H](CSCC[C@H](N)C(=O)O)[C@@H](O)[C@H]1O [SAH, S-adenosyl-l-homocysteine, reference compound]
